Assay results from patent US4026891A, “5- Or 6-pyridazinyl-benzimidazoles and salts thereof” (Boehringer Ingelheim GmbH, priority 1974, dated 1977).
Where a name gives a salt, the structure may show the parent alone.

Tests used:
[1] = test system: isolated, spontaneously beating auricles of the guinea pig; assay: positive inotropic (cardiotonic) activity on isolated auricles; format: cell-based; settings: Cavia porcellus, 10^-5 gm/ml, 30° C., average of at least 5 auricles, read-out: Increase in the force of contraction in %
Procedure: 3. Determination of the positive inotropic (cardiotonic) activity
The positive inotropic activity was determined as the strengthening effect upon the force of contraction of isolated, spontaneously beating auricles of the guinea pig. Freshly isolated auricles were put into a bath of 100 ml of a tyrode solution at a temperature of 30° C. The tyrode solution was infused with carbogen (95% of O2 and 5% of CO2). The spontaneous contractions of the auricles were registered isometrically with a Statham-Force-Displacement-transducer FT 03 C on a Grass polygraph. The auricles were pre-stretched with 1 gm. After an equilibration period of 20-30 minutes the test compound was added at a concentration of 10^-^5 gm/ml.

[2] = test system: thrombocyte aggregation in platelet-rich plasma of healthy human donors; assay: thrombocyte (platelet) aggregation inhibiting activity, method of Born and Cross, collagen-induced; format: cell-based; settings: 10^-4 mol/l, optical density, read-out: Inhibition in % after addition of 10^-4 mol/l, O.D.
Procedure: (1) Determination of thrombocyte aggregation inhibiting activity by the method of Born and Cross [see J. Physiol. 170, 397 (1964)]:
The platelet aggregation inhibiting activity was determined in the platelet-rich plasma of healthy human donors. The rate of decline of the optical density of the platelet suspension was measured and recorded photometrically after the addition of commercial collagen containing 1 mgm of collagen fibrils per ml. From the angle of inclination of the density curve, the rate of aggregation was estimated (Vmax). The optical density was taken as the point on the curve where most light was transmitted (O.D.). To provoke maximum aggregation about 0.01 ml of the collagen solution was added to 1 ml of platelet-rich plasma.

[3] = test system: mongrel dogs (arterial blood pressure); assay: hypotensive activity in anesthetized mongrel dogs; format: in vivo, dog; settings: average of 3 tests
Procedure: (2) Determination of the hypotensive activity:
The hypotensive activity was determined in mongrel dogs of both sexes (body weight between 19 and 26 kg) under chloralose/urethane (54+ 270 mgm/kg i.v.) and nembutal (10 mgm/kg i.v.) anesthesia. After tracheotomy, the animals were attached to a Harvard artificial respirator using normal air. The arterial blood pressure was measured in the arteria femoralis by a Statham pressure transducer P 23 Dc and registered on a Grass polygraph. The compound under investigation was administered in aqueous solution by intravenous injection into the vena saphena.

Cc1nc2ccc(-c3ccc(=O)[nH]n3)cc2[nH]1 [B, 2-Methyl-5(6)-(3'-oxo-2'H-6'-pyridazinyl)-benzimidazole hydrochloride]
activation at 10 µg/mL [1]: 20% | inhibition at 100 µM [2]: 100% | Decrease in blood pressure (figure after the slash) ([3]; 0.5 mgm/kg i.v.): 25 mm Hg | Decrease in blood pressure (figure before the slash) ([3]; 0.5 mgm/kg i.v.): 18 mm Hg | Decrease in blood pressure (figure after the slash) ([3]; 1.0 mgm/kg i.v.): 32 mm Hg | Decrease in blood pressure (figure before the slash) ([3]; 1.0 mgm/kg i.v.): 33 mm Hg

COc1ccc(-c2nc3ccc(C4=NNC(=O)CC4)cc3[nH]2)c(OC)c1 [C, 2-(o,p-Dimethoxy-phenyl)-5(6)-(3'-oxo-4',5'-dihydro-2'H-6'-pyridazinyl)-benzimidazole]
activation at 10 µg/mL [1]: 12% | Decrease in blood pressure (figure after the slash) ([3]; 0.25 mgm/kg i.v.): 44 mm Hg | Decrease in blood pressure (figure before the slash) ([3]; 0.25 mgm/kg i.v.): 17 mm Hg | Decrease in blood pressure (figure after the slash) ([3]; 1.0 mgm/kg i.v.): 44 mm Hg | Decrease in blood pressure (figure before the slash) ([3]; 1.0 mgm/kg i.v.): 33 mm Hg

Cc1nc2ccc(C3=NNC(=O)CC3)cc2[nH]1 [Compound A, 2-Methyl-5(6)-(3'-oxo-4',5'-dihydro-2'H-6'-pyridazinyl)-benzimidazole hydrochloride]
activation at 10 µg/mL [1]: 30% | inhibition at 100 µM [2]: 100% | Decrease in blood pressure (figure after the slash) ([3]; 0.25 mgm/kg i.v.): 9 mm Hg | Decrease in blood pressure (figure before the slash) ([3]; 0.25 mgm/kg i.v.): 7 mm Hg | Decrease in blood pressure (figure after the slash) ([3]; 1.0 mgm/kg i.v.): 38 mm Hg | Decrease in blood pressure (figure before the slash) ([3]; 1.0 mgm/kg i.v.): 26 mm Hg

COc1ccc(-c2nc3ccc(C4=NNC(=O)CC4)cc3[nH]2)cc1 [Compound I, 2-(p-Methoxy-phenyl)-5(6)-(3'-oxo-4',5'-dihydro-2'H-6'-pyridazinyl)-benzimidazole]
inhibition at 100 µM [2]: 100%

Cc1nc2ccc(-c3ccc(N4CCOCC4)nn3)cc2[nH]1 [D, 2-Methyl-5(6)-(3'-morpholino-6'-pyridazinyl)-benzimidazole]
inhibition at 100 µM [2]: 89%

O=C1CCC(c2ccc3nc(-c4ccccc4F)[nH]c3c2)=NN1 [E, 2-(o-Fluoro-phenyl)-5(6)-(3'-oxo-4',5'-dihydro-2'H-6'-pyridazinyl)-benzimidazole hydrochloride]
activation at 10 µg/mL [1]: 15%

O=C1CCC(c2ccc3nc(C(F)(F)F)[nH]c3c2)=NN1 [F, 2-trifluoromethyl-5(6)-(3'-oxo-4',5'-dihydro-2'H-6'-pyridazinyl)-benzimidazole]
inhibition at 100 µM [2]: 100%

Cc1nc2ccc(C3=NN(C)C(=O)CC3)cc2[nH]1 [G, 2-Methyl-5(6)-(2'-methyl-3'-oxo-4',5'-dihydro-2'H-6'-pyridazinyl)-benzimidazole hydrochloride]
activation at 10 µg/mL [1]: 13%

O=C1CCC(c2ccc3nc[nH]c3c2)=NN1 [H, 5(6)-(3'-oxo-4',5'-dihydro-2'H-6'-pyridazinyl)-benzimidazole]
inhibition at 100 µM [2]: 100%

COc1ccc(-c2nc3ccc(-c4ccc(=O)[nH]n4)cc3[nH]2)cc1 [K, 2-(p-Methoxy-phenyl)-5(6)-(3'-oxo-2'H-6'-pyridazinyl)-benzimidazole methanesulfonate]
activation at 10 µg/mL [1]: 33%
